# According to US7417062B2, “Substituted arylamides” (ChemoCentryx, Inc., priority 2004, dated 2008):
# Molecular target: T1, CCXCKR2 receptor (Homo sapiens, UniProt P25106)
# T1 construct: host or cells: MCF-7 (endogenous) and/or MDA-MB-435S transfected with hRDC1 in pcDNA3.1(+)
# Assay: Displacement of 125I-labeled SDF-1 from the CCXCKR2 receptor (radioligand binding, determination of IC50 values)
# Conditions: MCF-7 and/or MDA-MB-435S cells expressing CCXCKR2; 125I SDF-1; 3 hr at 4° C.; read-out: Activity (ability to displace 125I SDF-1 from CCXCKR2)
# Experimental: The ability of the compounds to displace the labeled chemokine from the CCXCKR2 receptor sites at multiple concentrations was then determined with the screening process.
# Compounds that were deemed effective modulators were able to displace at least 50% of the SDF-1 from the CCXCKR2 receptor at concentrations at or below 10 micromolar (μM) and more preferably at concentrations at or below 2 micromolar. At present, especially preferred compounds can displace at least 50% of the SDF-1 from the CCXCKR2 receptor at concentrations at or below 500 nM. Exemplary compounds that met these criteria are reproduced in Table B below. All compounds were prepared as described in the Examples above, or by related methods substituting readily available starting materials.
# Reagents and Cells. ^125I-labeled SDF-1 was purchased from Perkin-Elmer Life Sciences, Inc. (Boston, Mass.). The MCF-7 (adenocarcinoma; mammary gland) cell line was obtained from the American Type Culture Collection (Manassas, Va.) or and was cultured in DMEM (Mediatech, Herndon, Va.) supplemented with 10% fetal bovine serum (FBS) (HyClone Logan, Utah) and bovine insulin (0.01 mg/mL) (Sigma, St. Louis, Mo.) at 37° C. in a humidified incubator at a 5% CO2/air mixture. CCXCKR2 transfected MDA-MB-435S were produced as described below. MDA-MB-435S human breast cancer line, was purchased from ATCC, and cultured in DMEM/10% FBS medium. The complete coding sequence of the gene encoding CCXCKR2 (a.k.a.CXCR7, hRDC1), was isolated from MCF-7 cells using μMACs mRNA isolation kit (Miltenyi Biotec, Auburn, Calif.). DNA contamination was removed by DNase digestion via RNeasy columns (Qiagen, Inc., Valencia, Calif.) and cDNA was generated using GeneAmp RNA PCR Core Kit (Applied Biosystems, Foster City, Calif.). PCR of cDNA samples was performed using Taq PCR Master Mix kit (Qiagen, Inc.) and hRDC1 primers harboring 5′ and 3′ Not I sites (hRDC1F 5′-[…]-3′ (SEQ ID NO:1), hRDC1R 5′-[…]-3′ (SEQ ID NO:2)) Not I digested PCR product was ligated into Not I digested pcDNA3.1(+)(Invitrogen, Carlsbad, Calif.) and screened for orientation and sequence confirmed. Plasmid DNA was then isolated from overnight bacterial cultures by Maxiprep (Qiagen, Inc.). Plasmid DNA (10 μg) was added to MDA-MB-435s cells and cells were electroporated (0.22 kV, 960 uF) via Gene Pulser (Biorad laboratories, Hercules, Calif.). 48 hr post-electroporation, cells were transferred to selection medium (1000 ug/ml G418).
# Binding Analysis. Target compounds were tested to determine their ability to bind with CCXCKR2 sites on MCF-7 and/or MDA-MB-435S cells. Efficiency-maximized radioligand binding using filtration protocols as described in Dairaghi D J, et al., HHV8-encoded vMIP-I selectively engages chemokine receptor CCR5. Agonist and antagonist profiles of viral chemokines., J. Biol. Chem. 1999 Jul. 30; 274(31): 21569-74 and Gosling J, et al., Cutting edge: identification of a novel chemokine receptor that binds dendritic cell-and T cell-active chemokines including ELC, SLC, and TECK., J. Immunol. 2000 Mar. 15; 164(6):2851-6 was used.
# In these assays, MCF-7 and/or MDA-MB-435S cells were interrogated with the target compounds and the ability of these compounds to displace ^125I radiolabeled SDF-1 was assessed using the protocol described in Dairaghi and Gosling. The target compounds were added to the plate to the indicated concentration and were then incubated with cells followed by the addition of radiolabeled chemokine (^125I SDF-1) for 3 hr at 4° C. in the following binding medium (25 mM HEPES, 140 mM NaCl, 1 mM CaCl2, 5 mM MgCl2 and 0.2% bovine serum albumin, adjusted to pH 7.1). All assays were then incubated for 3 hrs at 4° C. with gentle agitation. Following incubation in all binding assays, reactions were aspirated onto PEI-treated GF/B glass filters (Packard) using a cell harvester (Packard) and washed twice (25 mM HEPES, 500 mM NaCl, 1 mM CaCl2, 5 mM MgCl2, adjusted to pH 7.1). […]
# T1 sequence (P25106 whole entry): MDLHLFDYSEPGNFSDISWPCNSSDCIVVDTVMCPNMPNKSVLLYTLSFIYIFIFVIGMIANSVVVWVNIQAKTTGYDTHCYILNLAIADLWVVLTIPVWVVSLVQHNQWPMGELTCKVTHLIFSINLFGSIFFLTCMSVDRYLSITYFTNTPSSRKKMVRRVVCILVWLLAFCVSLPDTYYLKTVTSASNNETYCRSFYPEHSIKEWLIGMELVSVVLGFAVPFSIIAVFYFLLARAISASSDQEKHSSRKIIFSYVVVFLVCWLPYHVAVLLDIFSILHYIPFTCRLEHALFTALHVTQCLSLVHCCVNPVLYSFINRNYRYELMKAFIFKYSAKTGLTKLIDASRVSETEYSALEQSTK
row,Structure (SMILES),IC50
1,"COc1ccc(C(=O)N(C[C@@H]2CCCN2CC2CC2)c2cccc(-c3ccc(N(C)C)cc3)c2)cc1OC [Example 37, (S)—N-(1-Cyclopropylmethyl-pyrrolidin-2-ylmethyl)-N-(4′-dimethylamino-biphenyl-3-yl)-3,4-dimethoxy-benzamide]",< 10000 nM
2,"COc1cc(C(=O)N(Cc2ccc3ccccc3c2)C[C@@H]2CCCN2C2CCC2)cc2c1OC(C)(C)O2 [Example 59, 7-Methoxy-2,2-dimethyl-benzo[1,3]dioxole-5-carboxylic acid ((S)-1-cyclobutyl-pyrrolidin-2-ylmethyl)-naphthalen-2-ylmethyl-amide]",< 500 nM
3,"COc1cc(C(=O)N(CCC2CCCN2C)Cc2ccc3ccccc3c2)cc(OC)c1OC (stereo not shown) [Example 5, 3,4,5-Trimethoxy-N-[2-(1-methyl-pyrrolidin-2-yl)-ethyl]-N-naphthalen-2ylmethyl-benzamide]",< 500 nM
4,"COc1cc(C(=O)N(Cc2ccc3cc(Cl)ccc3n2)C[C@@H]2C[C@@H]3CCCC[C@@H]3N2)cc2c1OC(C)(C)O2 [Example 73, 7-Methoxy-2,2-dimethyl-benzo[1,3]dioxole-5-carboxylic acid (6-chloro-quinolin-2-ylmethyl)-[(2S,3aS,7aS)-1-(octahydro-indol-2-yl)methyl]-amide]",< 500 nM
5,"COc1cc(C(=O)N(Cc2nc(-c3ccccc3)cs2)C[C@@H]2CCCN2CC2CNC2)cc2c1OC(C)(C)O2 [Example 52, 7-Methoxy-2,2-dimethyl-benzo[1,3]dioxole-5-carboxylic acid ((S)-1-azetidin-3-ylmethyl-pyrrolidin-2-ylmethyl)-(4-phenyl-thiazol-2-ylmethyl)-amide]",< 500 nM
6,"COc1ccc(C(=O)N(C[C@@H]2CCCN2CC2CC2)c2cccc(-c3cccnc3)c2)cc1OC [Example 35, (S)—N-(1-Cyclopropylmethyl-pyrrolidin-2-ylmethyl)-3,4-dimethoxy-N-(3-pyridin-3-yl-phenyl)-benzamide]",< 2000 nM
7,"COc1cc(C(=O)N(Cc2cc3ccccc3cn2)C[C@@H]2CCCN2C2CCC2)cc2c1OC(C)(C)O2 [Example 62, 7-Methoxy-2,2-dimethyl-benzo[1,3]dioxole-5-carboxylic acid ((S)-1-cyclobutyl-pyrrolidin-2-ylmethyl)-isoquinolin-3-ylmethyl-amide]",< 500 nM
8,"COc1ccc(C(=O)N(C[C@@H]2CCCN2C(C)C)c2cccc(-c3ccccc3)c2)cc1OC [Example 23, N-Biphenyl-3-yl-(S)—N-(1-isopropyl-pyrrolidin-2-ylmethyl)-3,4-dimethoxy-benzamide]",< 500 nM
9,"COc1ccc(C(=O)N(C[C@@H]2CCCN2CC2CCCCC2)c2cccc(-n3ccnn3)c2)cc1OC [Example 76, N-((S)-1-Cyclohexylmethyl-pyrrolidin-2-ylmethyl)-3,4-dimethoxy-N-(3-[1,2,3]triazol-1-yl-phenyl)-benzamide]",< 10000 nM
10,COc1cc(C(=O)N(CCC2CCCN2C)Cc2ccc3ccccc3n2)cc(OC)c1OC (stereo not shown) [Example 11],< 500 nM
11,"COc1cc(C(=O)N(Cc2csc(-c3ccccc3)n2)C[C@@H]2CCCN2)cc2c1OC(C)(C)O2 [Example 55, 7-Methoxy-2,2-dimethyl-benzo [1,3]dioxole-5-carboxylic acid (2-phenyl-thiazol-4-ylmethyl)-pyrrolidin-2-ylmethyl-amide]",< 500 nM
12,COc1cc(C(=O)N(CCCN2CCCCC2C)Cc2ccc3ccccc3c2)cc(OC)c1OC (stereo not shown) [Example 18],< 500 nM

# More lines, now with the values ahead:
row,IC50,Structure (SMILES)
1,< 2000 nM,"COc1ccc(C(=O)N(Cc2cnc3ccccc3c2)C[C@@H]2CCCN2CC2CCCCC2)cc1OC [Example 2, N—(S)-(1-Cyclohexylmethyl-pyrrolidin-2-ylmethyl)-3,4-dimethoxy-N-quinolin-3-ylmethyl-benzamide]"
2,< 2000 nM,"COc1cc(C(=O)N(CCC2CCCN2C)Cc2cccc3ccccc23)cc(OC)c1OC (stereo not shown) [Example 6, 3,4,5-Trimethoxy-N[2-(1-methyl-pyrrolidin-2-yl)-ethyl]-N-naphthalen-1-ylmethyl-benzamide]"
3,< 10000 nM,"COc1ccc(C(=O)N(C[C@@H]2CCCN2CC2CCCCC2)c2cccc(-n3cccn3)c2)cc1OC [Example 75, N-((S)-1-Cyclohexylmethyl-pyrrolidin-2-ylmethyl)-3,4-dimethoxy-N-(3-pyrazol-1-yl-phenyl)-benzamide]"
4,< 500 nM,"COc1cc(C(=O)N(Cc2nc(-c3ccccc3)cs2)C[C@@H]2C[C@@H]3CCCC[C@@H]3N2)cc2c1OC(C)(C)O2 [Example 51, 7-Methoxy-2,2-dimethyl-benzo[1,3]dioxole-5-carboxylic acid (octahydro-indol-2-ylmethyl)-(4-phenyl-thiazol-2-ylmethyl)-amide]"
5,< 10000 nM,"COc1ccc(C(=O)N(C[C@@H]2CCCN2CC2CC2)c2cccc(-c3ccc(F)c(Cl)c3)c2)cc1OC [Example 38, N-(3′-Chloro-4′-fluoro-biphenyl-3-yl)-(S)—N-(1-cyclopropylmethyl-pyrrolidin-2-ylmethyl)-3,4-dimethoxy-benzamide]"
6,< 500 nM,COc1cc(C(=O)N(CCC2CCCN2C)CC2=C(Cl)c3cc(F)ccc3OC2)cc(OC)c1OC (stereo not shown)
7,< 2000 nM,"COc1ccc(C(=O)N(Cc2nc3ccccc3s2)C[C@@H]2CCCN2)cc1OC [Example 25, N-Benzothiazol-2-yl methyl-3,4 dimethoxy-N—(S)-pyrrolidin-2-ylmethyl-benzamide]"
8,< 500 nM,"COc1cc(C(=O)N(CCC2CCCN2C)Cc2ccc3c(c2)OCCO3)cc(OC)c1OC (stereo not shown) [Example 9, N-(2,3-Dihydro-benzo[1,4]dioxin-6-ylmethyl)-3,4,5-trimethoxy-N-[2-(1-methyl-pyrrolidin-2-yl)-ethyl]-benzamide]"
9,< 2000 nM,"COc1cc(C(=O)N(CCC2CCCN2C)Cc2cc3ccccc3[nH]2)cc(OC)c1OC (stereo not shown) [Example 15, N-(1H-Indol-2ylmethyl)-3,4,5-trimethoxy-N-[2-(1-methyl-pyrrolidin-2-yl)-ethyl]-benzamide]"
10,< 500 nM,"COc1cc(C(=O)N(Cc2cc3ccccc3o2)C[C@@H]2CCCN2C2CCC2)cc2c1OC(C)(C)O2 [Example 58, 7-Methoxy-2,2-dimethyl-benzo[1,3]dioxole-5-carboxylic acid benzofuran-2-ylmethyl-((S)-1-cyclobutyl-pyrrolidin-2-ylmethyl)-amide]"
11,< 500 nM,"COc1ccc(C(=O)N(Cc2ccc3ccccc3c2)C[C@@H]2CCCN2CC2CCCCC2)cc1OC [Example 1, N—(S)-(1-Cyclohexylmethyl-pyrrolidine-2-ylmethyl)-3,4-dimethoxy-N-naphthalen-2-ylmethyl-benzamide]"
12,< 500 nM,"COc1cc(C(=O)N(C[C@@H]2CCCN2CC2CC2)c2cccc(-c3ccccc3)c2)ccc1OC(F)F [Example 32, N-Biphenyl-3-yl-(S)—N-(1-cyclopropylmethyl-pyrrolidin-2-ylmethyl)-4-difluoromethoxy-3-methoxy-benzamide]"
13,< 500 nM,"COc1cc(C(=O)N(CCCN2CCCCC2C)c2cccc(-c3ccccc3)c2)cc(OC)c1OC (stereo not shown) [Example 17, N-Biphenyl-3-yl-3,4,5-trimethoxy-N-[3-(2-methyl-piperidin-1-yl)-propyl]-benzamide]"
